This note sets out measurements from the OligoGym collection.

The target of this data set is UBE3A-ATS. Briefly: mouse, dose not given. To be noted: ASO.

HELM strings list units from the 5' end as sugar, base in round brackets, then linkage (d deoxyribose, r ribose, m 2'-O-methyl, p phosphodiester). Strings are as the collection lists them; they lack the last nucleoside at the 3' end of the tested compound. [moe] = 2'-O-(2-methoxyethyl) (MOE); [sp] = phosphorothioate linkage; [m5C] = 5-methylcytosine

“RNA1{[moe](T)[sp].[moe](T)p.[moe](G)p.[moe](G)p.[moe](T)p.[moe]([m5C])[sp].d(A)[sp].d(T)[sp].d([m5C])[sp].d(T)[sp].d([m5C])[sp].d(G)[sp].d(G)[sp].d(G)[sp].[moe](T)p.[moe](A)[sp].[moe](T)}$$$$ (last 3' nucleoside missing)” registered a 3 h FOB score of 6.7 score 0-7. Under “RNA1{[moe](T)[sp].[moe](T)p.[moe](G)p.[moe](G)p.[moe](T)p.[moe]([m5C])p.d(A)[sp].d(T)[sp].d([m5C])[sp].d(T)[sp].d([m5C])[sp].d(G)[sp].d(G)[sp].d(G)[sp].d(T)[sp].d(A)[sp].[moe](T)p.[moe](A)[sp].[moe](T)}$$$$ (last 3' nucleoside missing)” stands 6.5 score 0-7; under “RNA1{[moe](T)[sp].[moe](T)p.[moe](G)p.[moe](G)p.[moe](T)p.d(A)[sp].d(T)[sp].d(T)[sp].d(G)[sp].d(A)[sp].d([m5C])[sp].d(A)[sp].d([m5C])[sp].d([m5C])[sp].d(T)[sp].[moe]([m5C])p.[moe]([m5C])p.[moe](A)[sp].[moe](A)}$$$$ (last 3' nucleoside missing)”, 1 score 0-7; under “RNA1{[moe](T)[sp].[moe](T)p.[moe](G)p.[moe](G)p.[moe](T)p.d([m5C])[sp].d(A)[sp].d(T)[sp].d([m5C])[sp].d(T)[sp].d([m5C])[sp].d(G)[sp].d(G)[sp].d(G)[sp].d(T)[sp].[moe](A)p.[moe](T)p.[moe](A)[sp].[moe](T)}$$$$ (last 3' nucleoside missing)”, 5.7 score 0-7. Under “RNA1{[moe](T)[sp].[moe](T)p.[moe](G)p.[moe](G)p.[moe]([m5C])p.d(A)[sp].d([m5C])[sp].d(A)[sp].d([m5C])[sp].d([m5C])[sp].d(T)[sp].d(G)[sp].d(G)[sp].d(A)[sp].d(T)[sp].[moe](T)p.[moe](T)p.[moe]([m5C])[sp].[moe](A)}$$$$ (last 3' nucleoside missing)” stands 2 score 0-7; under “RNA1{[moe](T)[sp].[moe](T)p.[moe](G)p.[moe](G)p.[moe]([m5C])p.d(T)[sp].d(T)[sp].d(T)[sp].d(A)[sp].d(T)[sp].d(A)[sp].d([m5C])[sp].d(T)[sp].d(T)[sp].d(T)[sp].[moe](A)p.[moe]([m5C])p.[moe]([m5C])[sp].[moe]([m5C])}$$$$ (last 3' nucleoside missing)”, 1 score 0-7.

The substance “RNA1{[moe](T)[sp].[moe](T)p.[moe](G)p.[moe](G)p.d(T)[sp].d([m5C])[sp].d(A)[sp].d(T)[sp].d([m5C])[sp].d(T)[sp].d([m5C])[sp].d(G)[sp].d(G)[sp].d(G)[sp].[moe](T)p.[moe](A)p.[moe](T)p.[moe](A)[sp].[moe](T)}$$$$ (last 3' nucleoside missing)” displayed a 3 h FOB score of 4 score 0-7. Under “RNA1{[moe](T)[sp].[moe](T)p.[moe](G)p.[moe](T)p.[moe](A)p.d(G)[sp].d([m5C])[sp].d(T)[sp].d(A)[sp].d(T)[sp].d(A)[sp].d(G)[sp].d(G)[sp].d(T)[sp].d(G)[sp].[moe](T)p.[moe]([m5C])p.[moe](A)[sp].[moe]([m5C])}$$$$ (last 3' nucleoside missing)” stands 4 score 0-7; under “RNA1{[moe](T)[sp].[moe](T)p.[moe](G)p.[moe]([m5C])p.[moe](T)p.[moe](G)p.d(A)[sp].d(T)[sp].d([m5C])[sp].d(A)[sp].d([m5C])[sp].d(A)[sp].d(T)[sp].d(T)[sp].d(A)[sp].d([m5C])[sp].[moe]([m5C])p.[moe]([m5C])[sp].[moe](A)}$$$$ (last 3' nucleoside missing)”, 1 score 0-7; under “RNA1{[moe](T)[sp].[moe](T)p.[moe](G)p.[moe]([m5C])p.[moe](T)p.d(G)[sp].d(A)[sp].d(T)[sp].d([m5C])[sp].d(A)[sp].d([m5C])[sp].d(A)[sp].d(T)[sp].d(T)[sp].d(A)[sp].[moe]([m5C])p.[moe]([m5C])p.[moe]([m5C])[sp].[moe](A)}$$$$ (last 3' nucleoside missing)”, 0 score 0-7. For the substance “RNA1{[moe](T)[sp].[moe](T)p.[moe](G)p.[moe]([m5C])p.d(T)[sp].d(G)[sp].d(A)[sp].d(T)[sp].d([m5C])[sp].d(A)[sp].d([m5C])[sp].d(A)[sp].d(T)[sp].d(T)[sp].[moe](A)p.[moe]([m5C])p.[moe]([m5C])p.[moe]([m5C])[sp].[moe](A)}$$$$ (last 3' nucleoside missing)”, the 3 h FOB score came out at 0 score 0-7. Under “RNA1{[moe](T)[sp].[moe](T)p.[moe](T)p.[moe](A)p.[moe](G)p.d(G)[sp].d(T)[sp].d([m5C])[sp].d(A)[sp].d(A)[sp].d([m5C])[sp].d([m5C])[sp].d(A)[sp].d(A)[sp].d(T)[sp].[moe](T)p.[moe](T)p.[moe](G)[sp].[moe]([m5C])}$$$$ (last 3' nucleoside missing)” stands 0 score 0-7; under “RNA1{[moe](T)[sp].[moe](T)p.[moe](T)p.[moe](A)p.[moe](T)p.d(A)[sp].d(G)[sp].d(G)[sp].d(G)[sp].d(T)[sp].d(G)[sp].d(G)[sp].d(T)[sp].d(T)[sp].d(G)[sp].[moe](G)p.[moe](T)p.[moe](T)[sp].[moe]([m5C])}$$$$ (last 3' nucleoside missing)”, 6 score 0-7; under “RNA1{[moe](T)[sp].[moe](T)p.[moe](T)p.[moe](A)p.[moe](T)p.d(A)[sp].d([m5C])[sp].d(T)[sp].d(T)[sp].d(T)[sp].d(A)[sp].d([m5C])[sp].d([m5C])[sp].d([m5C])[sp].d(A)[sp].[moe](A)p.[moe]([m5C])p.[moe](T)[sp].[moe](T)}$$$$ (last 3' nucleoside missing)”, 0 score 0-7. Under “RNA1{[moe](T)[sp].[moe](T)p.[moe](T)p.[moe](A)p.[moe](T)p.d(T)[sp].d(G)[sp].d(G)[sp].d(T)[sp].d([m5C])[sp].d(A)[sp].d(T)[sp].d([m5C])[sp].d(T)[sp].d([m5C])[sp].[moe](G)p.[moe](G)p.[moe](G)[sp].[moe](T)}$$$$ (last 3' nucleoside missing)” stands 3.7 score 0-7; under “RNA1{[moe](T)[sp].[moe](T)p.[moe](T)p.[moe](G)p.[moe](G)p.d(T)[sp].d(A)[sp].d(T)[sp].d(T)[sp].d(G)[sp].d(A)[sp].d([m5C])[sp].d(A)[sp].d([m5C])[sp].d([m5C])[sp].[moe](T)p.[moe]([m5C])p.[moe]([m5C])[sp].[moe](A)}$$$$ (last 3' nucleoside missing)”, 3.7 score 0-7; under “RNA1{[moe](T)[sp].[moe](T)p.[moe](T)p.[moe](G)p.[moe](G)p.d([m5C])[sp].d(T)[sp].d(T)[sp].d(T)[sp].d(A)[sp].d(T)[sp].d(A)[sp].d([m5C])[sp].d(T)[sp].d(T)[sp].[moe](T)p.[moe](A)p.[moe]([m5C])[sp].[moe]([m5C])}$$$$ (last 3' nucleoside missing)”, 0 score 0-7. Under “RNA1{[moe](T)[sp].[moe](T)p.[moe](T)p.[moe](G)p.[moe](T)p.d(A)[sp].d(G)[sp].d([m5C])[sp].d(T)[sp].d(A)[sp].d(T)[sp].d(A)[sp].d(G)[sp].d(G)[sp].d(T)[sp].[moe](G)p.[moe](T)p.[moe]([m5C])[sp].[moe](A)}$$$$ (last 3' nucleoside missing)” stands 2.3 score 0-7; under “RNA1{[moe](T)[sp].[moe](T)p.[moe](T)p.[moe](G)p.[moe]([m5C])p.d(T)[sp].d(T)[sp].d(T)[sp].d(T)[sp].d([m5C])[sp].d(A)[sp].d(G)[sp].d(T)[sp].d([m5C])[sp].d(A)[sp].[moe](G)p.[moe](G)p.[moe](T)[sp].[moe](A)}$$$$ (last 3' nucleoside missing)”, 1 score 0-7. “RNA1{[moe](T)[sp].[moe](T)p.[moe](T)p.[moe](T)p.[moe](A)p.d(T)[sp].d(T)[sp].d(G)[sp].d(G)[sp].d(T)[sp].d([m5C])[sp].d(A)[sp].d(T)[sp].d([m5C])[sp].d(T)[sp].[moe]([m5C])p.[moe](G)p.[moe](G)[sp].[moe](G)}$$$$ (last 3' nucleoside missing)”: the 3 h FOB score was found to be 2.3 score 0-7. “RNA1{[moe](T)[sp].[moe](T)p.[moe](T)p.[moe](T)p.[moe](T)p.[moe]([m5C])p.d([m5C])[sp].d(A)[sp].d(T)[sp].d(T)[sp].d(T)[sp].d(T)[sp].d(T)[sp].d([m5C])[sp].d(T)[sp].d([m5C])[sp].[moe](T)p.[moe](T)[sp].[moe](A)}$$$$ (last 3' nucleoside missing)” returned a 3 h FOB score of 1 score 0-7. In turn, “RNA1{[moe](T)[sp].[moe](T)p.[moe](T)p.[moe](T)p.[moe](T)p.d([m5C])[sp].d([m5C])[sp].d(A)[sp].d(T)[sp].d(T)[sp].d(T)[sp].d(T)[sp].d(T)[sp].d([m5C])[sp].d(T)[sp].[moe]([m5C])p.[moe](T)p.[moe](T)[sp].[moe](A)}$$$$ (last 3' nucleoside missing)” showed a 3 h FOB score of 1.3 score 0-7.

For “RNA1{[moe](T)[sp].[moe](T)p.[moe](T)p.[moe](T)p.d(T)[sp].d([m5C])[sp].d([m5C])[sp].d(A)[sp].d(T)[sp].d(T)[sp].d(T)[sp].d(T)[sp].d(T)[sp].d([m5C])[sp].[moe](T)p.[moe]([m5C])p.[moe](T)p.[moe](T)[sp].[moe](A)}$$$$ (last 3' nucleoside missing)”, the 3 h FOB score worked out at 1 score 0-7.

With “RNA1{[moe](T)[sp].[moe](T)p.[moe](T)p.[moe]([m5C])p.[moe](A)p.d(T)[sp].d([m5C])[sp].d(A)[sp].d(G)[sp].d(T)[sp].d(T)[sp].d(A)[sp].d(G)[sp].d(T)[sp].d([m5C])[sp].[moe](A)p.[moe](G)p.[moe](G)[sp].[moe](T)}$$$$ (last 3' nucleoside missing)”, the 3 h FOB score amounted to 2 score 0-7. Under “RNA1{[moe](T)[sp].[moe](T)p.[moe]([m5C])p.[moe](A)[sp].d([m5C])[sp].d([m5C])[sp].d(A)[sp].d(T)[sp].d(T)[sp].d(T)[sp].d(T)[sp].d(G)[sp].[moe](A)p.[moe]([m5C])p.[moe]([m5C])p.[moe](T)[sp].[moe](T)}$$$$ (last 3' nucleoside missing)” stands 0 score 0-7. Under “RNA1{[moe](T)[sp].[moe](T)p.[moe]([m5C])p.[moe](A)p.[moe](T)p.d([m5C])[sp].d(A)[sp].d(G)[sp].d(T)[sp].d(T)[sp].d(A)[sp].d(G)[sp].d(T)[sp].d([m5C])[sp].d(A)[sp].[moe](G)p.[moe](G)p.[moe](T)[sp].[moe](T)}$$$$ (last 3' nucleoside missing)” stands 4 score 0-7.
